# Experimental data: the NIST ThermoML archive (doi:10.1016/j.fluid.2015.06.029)
# ± gives the expanded uncertainty stated by the source.
# Assay: refractive index (Na D-line) (dimensionless)
# Settings: 303.15 K; 101.33 kPa; Liquid; Standard Abbe refractometry
row,Structure (SMILES),refractive index
1,CCCCC(=O)O [pentanoic acid],1.4047 ± 0.0009
2,CC(C)CC(=O)O [3-methylbutanoic acid],1.3997 ± 0.0009
3,CCCC(=O)O [butanoic acid],1.3947 ± 0.0009
4,CC(=O)O [acetic acid],1.3716 ± 0.0009

# Further lines, results first:
row,refractive index,Structure (SMILES)
1,1.3523 ± 0.0009,CCCCC [pentane]
2,1.4823 ± 0.0009,O=S1(=O)CCCC1 [sulfolane]
3,1.3829 ± 0.0009,CCC(=O)O [propanoic acid]
4,1.3893 ± 0.0009,CC(C)C(=O)O [2-methylpropanoic acid]
